# Measured values reported in patent publication US20260276656A1, “GUT MICROBIOTA-RELATED METHODS FOR TREATING DEMENTIA AND AGE-DEPENDENT COGNITIVE DECLINE” (Albert-Ludwigs-Universitat Freiburg, priority 2019, published 2026).
# “Also recorded” adds a separate entry of the source.
# Key:
# [1] = test system: Layer 2/3 pyramidal cells of the infralimbic or prelimbic mPFC; test: Whole-cell patch-clamp recordings of spontaneous EPSCs and IPSCs in acute prefrontal brain slices; format: cell-based, mouse; conditions: pre-incubation with 10 μM
# Description: Mice were injected intraperitoneally with ketamine/xylazine (100/13 mg/kg body weight) and intracardially perfused with ice-cold solution containing (in mM) NaCl 87, NaHCO325, KCl 2.5, NaH2PO4 1.25, glucose 10, sucrose 75, CaCl2 0.5 and MgCl2 7 (aerated with 95% O2/5% CO2). 300 μm thick frontal sections of the PFC were prepared with a vibratome and stored in artificial cerebrospinal fluid (ACSF) containing in mM: NaCl 125, NaHCO3 25, KCl 2.5, NaH2PO4 1.25, Glucose 25, CaCl2 2 and MgCl2 1 (equillibrated with 95% O2/5% CO2) first at 34° C. for 30 min, then at room temperature. Patch-clamp recordings were targeted to pyramidal neurons identified by their characteristic soma shape using pipettes pulled from borosilicate glass tubing and filled with a Cs-based pipette solution containing (in mM): CsCl 20, MgCl2 2, Na2ATP 2, QX-314 1, Hepes 10, TEACl 8, Cs-Gluconate 110. Recordings were performed at 30 to 34° C. using an Axopatch Multiclamp amplifier in voltage clamp mode. To isolate spontaneous excitatory postsynaptic currents (EPSCs), the resting membrane potential was held at −70 mV (the reversal potential of inhibitory postsynaptic currents (IPSCs). To record spontaneous IPSCs, the cell was held at 0 mV (the reversal potential of EPSCs). Both IPSCs and EPSCs were recorded from the same neurons in slices pre-incubated in 10 μM 6-valerobetaine or in control slices kept in ACSF. Spontaneous events were identified visually from lowpass-filtered data (<1 kHz). Amplitudes were measured from average events.
# [2] = test system: prelimbic or infralimbic cortex of the mPFC; test: In vivo recordings from prelimbic or infralimbic cortex, spike-spike synchronization; parameters: species or system mouse; conditions: systemic application (intraperitoneally); n=9 mice; FIG. 8
# Description: C57BL/6J mice aged 10-11 weeks were anesthetized with isofluorane (induction: 3%, maintenance approximately 1.5%). Buprenorphin (0.05-0.1 mg/kg body weight) and Carprofen (4-5 mg/kg body weight) were injected for analgesia. During implantation, the body temperature was maintained with a heating pad. The skin was incised from the cerebellum to the nose and the bone cleaned with 3% H2O2. Ground and reference screws (1 mm diameter) were inserted anterior to the lambdoid suture. A third stabilizing screw was inserted on the left parietal bone. A microdrive loaded with 8 tetrodes made from tungsten wire (California Fine Wire Company) was inserted in the right prefrontal cortex at the coordinates AP+1.9, ML 0.4, DV−1.2 (from brain surface). The craniotomy was protected with vaseline and the microdrive fixed to the skull using dental cement. After the surgery, the mice were injected with buprenorphin and carprofen subcutaneously for 48 h hours and housed individually.
# Local field potential were recorded with a wireless amplifier system (W4, Multichannel Systems) 2-21 days after surgery at a sampling rate of 2 kHz or with a wired recording system (RHD2000, Intan Technologies, sampling rate 10 kHz) on freely moving mice. Single-unit activity was recorded at 20-30 kHz using a 32-channel amplifier system (RHD2000, Intan Technologies). […]
compound,measurement,setting,value
"C[N+](C)(C)CCCCC(=O)[O-] [NNN-trimethyl-5-aminovalerate, 5-(trimethylammonio) pentanoate]",amplitude of spontaneous EPSCs,[1],unaltered; also recorded: no significant effect
same,amplitude of spontaneous IPSCs,[1],not the amplitude; also recorded: no significant effect
same,frequency of spontaneous EPSCs,[1],unaltered
same,frequency of spontaneous IPSCs,[1],increased
same,spike-spike-synchronization,[2],enhanced
